Patent publication US10722514B2 (FLX Bio, Inc., priority 2017, dated 2020)
Where a name gives a salt, the structure may show the parent alone.

target: T1, recombinant full-length USP7 (Homo sapiens, UniProt Q93009); assay: USP7-mediated ubiquitin-rhodamine cleavage assay; type: biochemical; details: recombinant full-length USP7 62 pM; ubiquitin-rhodamine 100 nM; 30-minute incubation with compound, 1 hour reaction at room temperature; read-out: Potency: USP7 IC50
T1 construct: A 25 μl reaction volume containing recombinant full-length USP7 (62 pM)
Outline: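 Enzyme 62 pM; HEPES pH 7.3/150 mM NaCl/1 mM TCEP/125 μg/ml BSA; 1% DMSO; 30 min cpd preinc RT; Ub-rhodamine 100 nM, 1 h RT, dark; acetic acid stop; fluorescence; IC50 4-param fit.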

T1 sequence (Q93009 whole entry): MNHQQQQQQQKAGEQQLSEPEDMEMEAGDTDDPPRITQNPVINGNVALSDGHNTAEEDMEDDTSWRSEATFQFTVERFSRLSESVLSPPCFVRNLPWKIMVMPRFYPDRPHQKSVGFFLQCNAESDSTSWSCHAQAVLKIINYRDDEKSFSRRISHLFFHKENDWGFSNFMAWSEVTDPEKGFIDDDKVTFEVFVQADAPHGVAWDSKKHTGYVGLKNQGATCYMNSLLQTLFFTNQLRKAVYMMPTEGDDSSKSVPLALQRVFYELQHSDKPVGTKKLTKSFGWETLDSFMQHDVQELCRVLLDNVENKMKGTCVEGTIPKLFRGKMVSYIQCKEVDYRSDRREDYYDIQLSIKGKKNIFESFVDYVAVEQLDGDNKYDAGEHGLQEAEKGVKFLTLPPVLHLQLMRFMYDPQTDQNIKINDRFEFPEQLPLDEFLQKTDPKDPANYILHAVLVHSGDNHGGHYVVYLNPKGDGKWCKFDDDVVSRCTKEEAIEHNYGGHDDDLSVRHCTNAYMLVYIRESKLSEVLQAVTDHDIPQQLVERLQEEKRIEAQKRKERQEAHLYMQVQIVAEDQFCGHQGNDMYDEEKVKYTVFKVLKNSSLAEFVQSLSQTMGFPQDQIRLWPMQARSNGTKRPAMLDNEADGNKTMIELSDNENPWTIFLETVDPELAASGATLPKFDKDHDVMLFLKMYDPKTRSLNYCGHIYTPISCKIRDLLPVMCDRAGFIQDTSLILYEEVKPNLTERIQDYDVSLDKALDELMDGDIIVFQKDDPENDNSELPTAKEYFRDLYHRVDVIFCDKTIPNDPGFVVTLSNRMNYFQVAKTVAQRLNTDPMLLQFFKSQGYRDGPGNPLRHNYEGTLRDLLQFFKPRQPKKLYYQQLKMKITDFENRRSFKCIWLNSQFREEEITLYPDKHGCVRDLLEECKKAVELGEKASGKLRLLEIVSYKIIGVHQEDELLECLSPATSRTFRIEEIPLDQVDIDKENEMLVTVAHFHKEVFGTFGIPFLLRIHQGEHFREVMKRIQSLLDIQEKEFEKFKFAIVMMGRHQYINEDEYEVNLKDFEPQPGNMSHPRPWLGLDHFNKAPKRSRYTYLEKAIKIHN

Compound | IC50 [nM]
Cc1cc(Cl)cc(-c2ccnc3cc(CO)sc23)c1O[C@@H]1CNC[C@@H]1N=[N+]=[N-] [Example 191, (7-(2-(((3R,4S)-4-Azidopyrrolidin-3-yl)oxy)-5-chloro-3-methylphenyl)thieno[3,2-b]pyridin-2-yl)methanol] | 1000 to 10000
Cc1cc(Cl)cc(-c2ccnc3cc(CN4C(=O)CCC4=O)sc23)c1O[C@H]1CCNC[C@@H]1F [Example 208, 1-((7-(5-Chloro-2-(((3S,4S)-3-fluoropiperidin-4-yl)oxy)-3-methylphenyl)thieno[3,2-b]pyridin-2-yl)methyl)pyrrolidine-2,5-dione] | < 1000
Cc1cc(Cl)cc(-c2ccnc3cc(CN4C(=O)CCC4=O)sc23)c1O[C@@H]1CCNC[C@@H]1F [Example 209, 1-((7-(5-Chloro-2-(((3S,4R)-3-fluoropiperidin-4-yl)oxy)-3-methylphenyl)thieno[3,2-b]pyridin-2-yl)methyl)pyrrolidine-2,5-dione] | < 1000
Cc1cc(Cl)cc(-c2ccnc3cc(CN4C(=O)C5C(C4=O)C5(C)C)sc23)c1O[C@H]1CCCN[C@H]1C (stereo partly drawn) [Example 363, 3-[[7-[5-chloro-3-methyl-2-[[(2S,3S)-2-methyl-3-piperidyl]oxy]phenyl]thieno[3,2-b]pyridin-2-yl]methyl]-6,6-dimethyl-3-azabicyclo[3.1.0]hexane-2,4-dione; 2,2,2-trifluoroacetic acid] | < 1000
Cc1cc(Cl)cc(-c2ccnc3cc(CN4C(=O)CCC4=O)sc23)c1O[C@@H]1C[C@H]2CC[C@@H](C1)N2 [Example 215, 1-((7-(2-(((1R,3s,5S)-8-Azabicyclo[3.2.1]octan-3-yl)oxy)-5-chloro-3-methylphenyl)thieno[3,2-b]pyridin-2-yl)methyl)pyrrolidine-2,5-dione] | < 1000
Cc1cc(Cl)cc(-c2ncnc3cc(Cn4c(C(F)(F)F)cccc4=O)sc23)c1O[C@@H]1CNC[C@@H]1F [Example 148, 1-((4-(5-Chloro-2-(((3R,4S)-4-fluoropyrrolidin-3-yl)oxy)-3-methylphenyl)thieno[3,2-d]pyrimidin-6-yl)methyl)-6-(trifluoromethyl)pyridin-2(1H)-one] | 10000 to 30000
3-((7-(5-Chloro-3-methyl-2-(((1R,3R)-3-morpholinocyclopentyl)oxy)phenyl)thieno[3,2-b]pyridin-2-yl)methyl)-1-(2,2,2-trifluoroethyl)pyrimidine-2,4(1H,3H)-dione [Example 246] | < 1000
Cc1cc(Cl)cc(-c2ccnc3cc(CN4C(=O)CCC4=O)sc23)c1OC1CCN(CC(F)(F)F)CC1 [Example 194, 1-((7-(5-Chloro-3-methyl-2-((1-(2,2,2-trifluoroethyl)piperidin-4-yl)oxy)phenyl)thieno[3,2-b]pyridin-2-yl)methyl)pyrrolidine-2,5-dione] | 1000 to 10000
Cc1cc(Cl)cc(-c2ncnc3cc(CN4C(=O)COC4=O)sc23)c1O[C@@H]1CNC[C@@H]1F [Example 128, 3-((4-(5-Chloro-2-(((3R,4S)-4-fluoropyrrolidin-3-yl)oxy)-3-methylphenyl)thieno[3,2-d]pyrimidin-6-yl)methyl)oxazolidine-2,4-dione] | < 1000
Cc1cc(Cl)cc(-c2ccnc3cc(CO)sc23)c1O[C@@H]1CNC[C@@H]1C [Example 56, (7-(5-Chloro-3-methyl-2-(((3S,4S)-4-methylpyrrolidin-3-yl)oxy)phenyl)thieno[3,2-b]pyridin-2-yl)methanol] | 1000 to 10000
Cc1cc(Cl)cc(-c2ncnc3cc(CN4C(=O)C5C(C4=O)C5(C)C)sc23)c1O[C@@H]1CNC[C@@H]1C (stereo partly drawn) [Example 349, 3-[[4-[5-chloro-3-methyl-2-[(3S,4S)-4-methylpyrrolidin-3-yl]oxy-phenyl]thieno[3,2-d]pyrimidin-6-yl]methyl]-6,6-dimethyl-3-azabicyclo[3.1.0]hexane-2,4-dione] | < 1000
Cc1cc(Cl)cc(-c2ncnc3cc(CN4C(=O)C5C(C4=O)C5(C)C)sc23)c1O[C@@H]1CCN(C)C[C@@H]1C (stereo partly drawn) [Example 373, 3-[[4-[5-chloro-2-[[(3S,4R)-1,3-dimethyl-4-piperidyl]oxy]-3-methyl-phenyl]thieno[3,2-d]pyrimidin-6-yl]methyl]-6,6-dimethyl-3-azabicyclo[3.1.0]hexane-2,4-dione dihydrochloride] | < 1000

same assay, conditions: recombinant full-length USP7 62 pM; ubiquitin-rhodamine 100 nM; 30-minute incubation, 1 hour reaction at room temperature; read-out: Potency (USP7 IC50)

Compound | IC50 [nM]
COC1CCC(Oc2c(C)cc(Cl)cc2-c2ccnc3cc(Cn4c(=O)ccn(CC(F)(F)F)c4=O)sc23)CC1 (stereo not shown) [Example 674, 3-[[7-[5-chloro-2-(4-methoxycyclohexoxy)-3-methyl-phenyl]thieno[3,2-b]pyridin-2-yl]methyl]-1-(2,2,2-trifluoroethyl)pyrimidine-2,4-dione] | < 1000

same assay, conditions: recombinant full-length USP7 62 pM; ubiquitin-rhodamine 100 nM; 30-minute pre-incubation, 1 hour reaction at room temperature; read-out: Potency (USP7 IC50)

Compound | IC50 [nM]
Cc1cc(Cl)cc(-c2ccnc3cc(Cn4c(=O)ccn(C)c4=O)sc23)c1OC1CC2CC1N(C)C2 (stereo not shown) [Example 465] | < 1000
Cc1cc(C(F)(F)F)cc(-c2ccnc3cc(Cn4c(=O)ccn(C)c4=O)sc23)c1O[C@@H]1CC[C@@H](N)C1 [Example 456, 3-[[7-[2-[(1R,3R)-3-aminocyclopentoxy]-3-methyl-5-(trifluoromethyl)phenyl]thieno[3,2-b]pyridin-2-yl]methyl]-1-methyl-pyrimidine-2,4-dione dihydrochloride] | < 1000
Cc1cc(Cl)cc(-c2ccnc3cc(CN4C(=O)C5C(C4=O)C5(C)C)sc23)c1O[C@H]1CCCNC1 (stereo partly drawn) [Example 436, 3-[[7-[5-chloro-3-methyl-2-[[(3S)-3-piperidyl]oxy]phenyl]thieno[3,2-b]pyridin-2-yl]methyl]-6,6-dimethyl-3-azabicyclo[3.1.0]hexane-2,4-dione dihydrochloride] | < 1000
CCN1CC2CC(Oc3c(C)cc(Cl)cc3-c3ccnc4cc(Cn5c(=O)ccn(C)c5=O)sc34)C1C2 (stereo not shown) [Example 466, 3-[[7-[5-chloro-2-[(3-ethyl-3-azabicyclo[2.2.1]heptan-5-yl)oxy]-3-methyl-phenyl]thieno[3,2-b]pyridin-2-yl]methyl]-1-methyl-pyrimidine-2,4-dione] | < 1000
Cc1cc(Cl)cc(-c2ccnc3cc(CN4C(=O)CCC4=O)sc23)c1O[C@@H]1CNCC[C@H]1C [Example 415, 1-[[7-[5-chloro-3-methyl-2-[[(3S,4R)-4-methyl-3-piperidyl]oxy]phenyl]thieno[3,2-b]pyridin-2-yl]methyl]pyrrolidine-2,5-dione] | < 1000
Cc1cc(Cl)cc(-c2ccnc3cc(Cn4c(=O)ccn(CC(F)(F)F)c4=O)sc23)c1O[C@@H]1C=C[C@@H](N)C1 [Example 630, 3-[[7-[2-[(1S,4S)-4-aminocyclopent-2-en-1-yl]oxy-5-chloro-3-methyl-phenyl]thieno[3,2-b]pyridin-2-yl]methyl]-1-(2,2,2-trifluoroethyl)pyrimidine-2,4-dione] | < 1000
Cc1cc(Cl)cc(-c2ccnc3cc(CN4C(=O)CCC4=O)sc23)c1OC1CC2(CCN2)C1 (stereo not shown) [Example 464, 1-[[7-[2-(1-azaspiro[3.3]heptan-6-yloxy)-5-chloro-3-methyl-phenyl]thieno[3,2-b]pyridin-2-yl]methyl]pyrrolidine-2,5-dione; 2,2,2-trifluoroacetic acid] | < 1000
Cc1cc(Cl)cc(-c2ccnc3cc(Cn4c(=O)ccn(CC(F)(F)F)c4=O)sc23)c1OCC1(F)CNC1 [Example 641, 3-[[7-[5-chloro-2-[(3-fluoroazetidin-3-yl)methoxy]-3-methyl-phenyl]thieno[3,2-b]pyridin-2-yl]methyl]-1-(2,2,2-trifluoroethyl)pyrimidine-2,4-dione] | < 1000
Cc1cc(Cl)cc(-c2ccnc3cc(Cn4c(=O)ccn(C)c4=O)sc23)c1OC1CCCN(C(C)C)C1 (stereo not shown) [Example 505, 3-[[7-[5-chloro-2-[(1-isopropyl-3-piperidyl)oxy]-3-methyl-phenyl]thieno[3,2-b]pyridin-2-yl]methyl]-1-methyl-pyrimidine-2,4-dione] | < 1000
Cc1cc(Cl)cc(-c2ccnc3cc(Cn4c(=O)ccn(CC(F)(F)F)c4=O)sc23)c1O[C@@H]1CN[C@H](C)C1 [Example 633, 3-[[7-[5-chloro-3-methyl-2-[(3S,5R)-5-methylpyrrolidin-3-yl]oxy-phenyl]thieno[3,2-b]pyridin-2-yl]methyl]-1-(2,2,2-trifluoroethyl)pyrimidine-2,4-dione] | < 1000
Cc1cc(Cl)cc(-c2ncnc3cc(Cn4c(=O)c(F)cn(CC(F)(F)F)c4=O)sc23)c1O[C@H]1CCCNC1 [Example 556, 3-[[4-[5-chloro-3-methyl-2-[[(3S)-3-piperidyl]oxy]phenyl]thieno[3,2-d]pyrimidin-6-yl]methyl]-5-fluoro-1-(2,2,2-trifluoroethyl)pyrimidine-2,4-dione] | < 1000
Cc1cc(Cl)cc(-c2ccnc3cc(CN4C(=O)CCC4=O)sc23)c1O[C@@H]1CNC[C@H](F)C1 [Example 424, 1-[[7-[5-chloro-2-[[(3S,5R)-5-fluoro-3-piperidyl]oxy]-3-methyl-phenyl]thieno[3,2-b]pyridin-2-yl]methyl]pyrrolidine-2,5-dione] | < 1000
Cc1cc(Cl)cc(-c2ccnc3cc(Cn4c(=O)ccn(C5CCC5)c4=O)sc23)c1O[C@H]1CCCNC1 [Example 477, 3-[[7-[5-chloro-3-methyl-2-[[(3S)-3-piperidyl]oxy]phenyl]thieno[3,2-b]pyridin-2-yl]methyl]-1-cyclobutyl-pyrimidine-2,4-dione] | < 1000
3-[[7-[5-chloro-2-[2-(3-hydroxyazetidin-1-yl)ethoxy]-3-methyl-phenyl]thieno[3,2- [Example 667] | < 1000
Cc1cc(Cl)cc(-c2ccnc3cc(Cn4c(=O)ccn(C)c4=O)sc23)c1OC1CC[C@H](C)NC1 (stereo partly drawn) [Example 523, 3-[[7-[5-chloro-3-methyl-2-[[(6S)-6-methyl-3-piperidyl]oxy]phenyl]thieno[3,2-b]pyridin-2-yl]methyl]-1-methyl-pyrimidine-2,4-dione; 2,2,2-trifluoroacetic acid] | < 1000
